Measurements published in ChEMBL document CHEMBL1201862, “PubChem BioAssay data set” (2004).
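Method: 48-hour compound exposure of cells in 96-well plates, five concentrations, linear interpolation of endpoints. GI50 = concentration required for 50% inhibition of growth.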 The source made the active and inactive calls. Rule as the data show it: active = GI50 up to about 1.1 µM and inactive = higher.

How the values were obtained:
Experiment in all cases: DTP human tumour cell line panel, 48 h
CCRF-CEM = system: CCRF-CEM
EKVX = system: EKVX
HCC 2998 = system: HCC 2998
HOP-92 = system: HOP-92
IGROV-1 = system: IGROV-1
K562 = system: K562
M14 = system: M14
MOLT-4 = system: MOLT-4
NCI-H23 = system: NCI-H23
OVCAR-3 = system: OVCAR-3
OVCAR-4 = system: OVCAR-4
OVCAR-5 = system: OVCAR-5
RPMI-8226 = system: RPMI-8226
SF-539 = system: SF-539
SNB-19 = system: SNB-19
SNB-75 = system: SNB-75
TK-10 = system: TK-10
U-251 = system: U-251
UACC-62 = system: UACC-62
NCI-H522 = system: NCI-H522

| Structure (SMILES) | GI50 (CCRF-CEM) | GI50 (EKVX) | GI50 (HCC 2998) | GI50 (HOP-92) | GI50 (IGROV-1) | GI50 (K562) | GI50 (M14) | GI50 (MOLT-4) | GI50 (NCI-H23) | GI50 (OVCAR-3) | GI50 (OVCAR-4) | GI50 (OVCAR-5) | GI50 (RPMI-8226) | GI50 (SF-539) | GI50 (SNB-19) | GI50 (SNB-75) | GI50 (TK-10) | GI50 (U-251) | GI50 (UACC-62) | GI50 (NCI-H522) |
| --- | --- | --- | --- | --- | --- | --- | --- | --- | --- | --- | --- | --- | --- | --- | --- | --- | --- | --- | --- | --- |
| C[C@]12CC[C@@H]3c4ccc(O)cc4CC[C@H]3[C@@H]1C/C(=C\c1ccncc1)C2=O | 15.3 µM (inactive) | 28.1 µM (inactive) | 30.6 µM (inactive) | 23.1 µM (inactive) | 15.1 µM (inactive) | 8.61 µM (inactive) | 20.4 µM (inactive) | 4.71 µM (inactive) | 29 µM (inactive) | 14.8 µM (inactive) | 15.6 µM (inactive) | 27.5 µM (inactive) | 8.53 µM (inactive) | 10.9 µM (inactive) | 38.5 µM (inactive) | > 100 µM (inactive) | 29.2 µM (inactive) | 16.1 µM (inactive) | 10.3 µM (inactive) |  |
| Nc1nc(N)c2cc(Sc3ccc4nc(N)nc(N)c4c3)ccc2n1 | 0.0194 µM (active) | > 100 µM (inactive) | 0.558 µM (active) | > 100 µM (inactive) | 0.514 µM (active) | < 0.01 µM (active) | > 100 µM (inactive) | 0.0524 µM (active) |  | > 31.6 µM (inactive) | > 100 µM (inactive) | > 100 µM (inactive) | 4.89 µM (inactive) | > 100 µM (inactive) | 4.23 µM (inactive) | > 100 µM (inactive) | > 100 µM (inactive) | > 100 µM (inactive) |  |  |
| C=C1c2c(cc3c(c2O)c(=O)c2ccccc2n3C)OC1(C)C | > 100 µM (inactive) | > 100 µM (inactive) |  | 15 µM (inactive) | 32.7 µM (inactive) | > 10 µM (inactive) | > 100 µM (inactive) | > 100 µM (inactive) | 7.89 µM (inactive) | > 100 µM (inactive) |  |  | > 100 µM (inactive) | 35.2 µM (inactive) | 34.4 µM (inactive) | 16.9 µM (inactive) | 77.6 µM (inactive) | 50.1 µM (inactive) | > 100 µM (inactive) | 2.95 µM (inactive) |
| COc1cc(C2C(C(=O)O)=C(COC(C)=O)Oc3cc4c(cc32)OCO4)cc(OC)c1OC (centres undefined) | > 100 µM (inactive) | > 100 µM (inactive) |  |  | > 100 µM (inactive) | > 100 µM (inactive) | > 100 µM (inactive) | > 100 µM (inactive) | > 100 µM (inactive) | > 100 µM (inactive) | > 100 µM (inactive) | > 100 µM (inactive) | > 100 µM (inactive) |  | > 100 µM (inactive) | 41 µM (inactive) | > 100 µM (inactive) | > 100 µM (inactive) | > 100 µM (inactive) |  |
| O=C1CC(=O)c2c(O)cc(O)c(c2O)-c2c(ccc(O)c2O)C2=CC(=O)c3c(O)cc(O)c(c3O2)-c2c1ccc(O)c2O.O=C1CC2(O)Oc3c1c(O)cc(O)c3-c1c(ccc(O)c1O)-c1cc(=O)c3c(O)cc(O)c(c3o1)-c1c2ccc(O)c1O | > 50 µM (inactive) | > 50 µM (inactive) | > 50 µM (inactive) | > 50 µM (inactive) | > 50 µM (inactive) | > 50 µM (inactive) | > 50 µM (inactive) | > 50 µM (inactive) | > 50 µM (inactive) | > 50 µM (inactive) | > 50 µM (inactive) | > 50 µM (inactive) |  | > 50 µM (inactive) | > 50 µM (inactive) | > 50 µM (inactive) | > 50 µM (inactive) | > 50 µM (inactive) | > 50 µM (inactive) |  |
| Cc1cc2c(cc1C)N1Cc3c(ccc(C)c3C)N(C2)C1.Cc1cc2c(cc1C)N1Cc3cc(C)c(C)cc3N(C2)C1 | > 100 µM (inactive) | > 100 µM (inactive) | > 100 µM (inactive) |  | > 100 µM (inactive) | 70.8 µM (inactive) | > 100 µM (inactive) | > 100 µM (inactive) | 92.5 µM (inactive) | > 100 µM (inactive) | > 100 µM (inactive) |  | > 100 µM (inactive) | > 100 µM (inactive) | > 100 µM (inactive) | > 100 µM (inactive) | > 100 µM (inactive) | > 100 µM (inactive) | > 100 µM (inactive) | 53.6 µM (inactive) |
| CC(=O)O[C@@H]1[C@H]2[C@@H](OC(=O)c3ccccc3)[C@@H](C)C[C@]2(O)[C@H](OC(C)=O)[C@@]2(C)[C@@H]3C[C@@](C)(OC(C)=O)C[C@@H](OC(C)=O)[C@@]3(OC(C)=O)C[C@@]12C | > 10 µM (inactive) | > 10 µM (inactive) | > 10 µM (inactive) | > 10 µM (inactive) | > 10 µM (inactive) | > 10 µM (inactive) | > 10 µM (inactive) | > 10 µM (inactive) | > 10 µM (inactive) | > 10 µM (inactive) | > 10 µM (inactive) | > 10 µM (inactive) |  | > 10 µM (inactive) | > 10 µM (inactive) | > 10 µM (inactive) | > 10 µM (inactive) | > 10 µM (inactive) | > 10 µM (inactive) | > 10 µM (inactive) |
| Fc1ccccc1C1CC(C(c2ccccc2)c2ccccc2)=Nc2ccccc2S1 (centres undefined) | 1.91 µM (inactive) | 10.3 µM (inactive) | 5.35 µM (inactive) |  | 6.95 µM (inactive) | 2.73 µM (inactive) | 11.9 µM (inactive) | 2.71 µM (inactive) | 5.89 µM (inactive) | 11.3 µM (inactive) | 10.9 µM (inactive) | 12.1 µM (inactive) | 3.6 µM (inactive) | 21.9 µM (inactive) | 14.4 µM (inactive) | 1.13 µM (inactive) | 10.7 µM (inactive) | 12.6 µM (inactive) | 3.27 µM (inactive) | 6.79 µM (inactive) |
| O=C1CCCC(=O)N1CCc1c[nH]c2ccccc12 | > 100 µM (inactive) | > 100 µM (inactive) | > 100 µM (inactive) | > 100 µM (inactive) | > 100 µM (inactive) | > 100 µM (inactive) | > 100 µM (inactive) | > 100 µM (inactive) | > 100 µM (inactive) | > 100 µM (inactive) | > 100 µM (inactive) | > 100 µM (inactive) |  | > 100 µM (inactive) | > 100 µM (inactive) | > 100 µM (inactive) | > 100 µM (inactive) | > 100 µM (inactive) | > 100 µM (inactive) |  |
| Cc1cc(NC(=S)SCc2ccc(F)cc2)c([N+](=O)[O-])cc1C |  | 39.6 µM (inactive) |  | 18.4 µM (inactive) |  | 32.3 µM (inactive) | 35.5 µM (inactive) | 3.29 µM (inactive) | 29.8 µM (inactive) | 22.6 µM (inactive) | 30.9 µM (inactive) | 21.6 µM (inactive) |  | 23.8 µM (inactive) | 23.2 µM (inactive) | 46.9 µM (inactive) | 24.2 µM (inactive) | 22.4 µM (inactive) | 15 µM (inactive) |  |
| Oc1ccc(-c2nc3cc(C(F)(F)F)ccc3s2)cc1 | 12.2 µM (inactive) | 1.77 µM (inactive) |  |  | 11.2 µM (inactive) | 23.9 µM (inactive) | 15.5 µM (inactive) | 27.2 µM (inactive) | 15.9 µM (inactive) | 15 µM (inactive) |  | 17.2 µM (inactive) | 16.7 µM (inactive) | 19.5 µM (inactive) | 16.7 µM (inactive) |  | 18.8 µM (inactive) | 16.1 µM (inactive) | 13.9 µM (inactive) | 12.6 µM (inactive) |
| O=C(O)C1(C(O)c2ccccc2)SCCCS1 (centres undefined) | > 10 µM (inactive) | > 10 µM (inactive) |  | > 10 µM (inactive) | > 10 µM (inactive) | > 10 µM (inactive) | > 10 µM (inactive) | > 10 µM (inactive) | > 10 µM (inactive) | > 10 µM (inactive) |  | > 10 µM (inactive) |  | > 10 µM (inactive) | > 10 µM (inactive) | > 10 µM (inactive) | > 10 µM (inactive) | > 10 µM (inactive) | > 10 µM (inactive) |  |
| COC(=O)[C@@H]1O[C@]12[C@@H](CO[Si](C)(C)C(C)(C)C)O[C@@H](n1cc(C)c(=O)[nH]c1=O)[C@@H]2O[Si](C)(C)C(C)(C)C | 2.39 µM (inactive) | 23.5 µM (inactive) |  |  | 5.64 µM (inactive) | 7.96 µM (inactive) | 19.5 µM (inactive) | 2.84 µM (inactive) | 15.8 µM (inactive) | 14.6 µM (inactive) | 32.5 µM (inactive) | 20.4 µM (inactive) |  | 21.3 µM (inactive) | 10.3 µM (inactive) | 23.1 µM (inactive) | 45 µM (inactive) | 12.3 µM (inactive) | 17.9 µM (inactive) | 11.9 µM (inactive) |
| COc1ccccc1C1C(Cl)C(=O)N1n1cnc2ccccc2c1=O (centres undefined) | > 100 µM (inactive) | > 100 µM (inactive) | > 100 µM (inactive) |  | > 100 µM (inactive) | > 100 µM (inactive) | > 100 µM (inactive) | > 100 µM (inactive) | > 100 µM (inactive) | > 100 µM (inactive) | > 100 µM (inactive) | > 100 µM (inactive) | > 100 µM (inactive) |  | 75 µM (inactive) | 40.6 µM (inactive) | > 100 µM (inactive) | 48.3 µM (inactive) | > 100 µM (inactive) | > 100 µM (inactive) |
| CCOC(=O)CCSS(=O)(=O)C(F)(F)F | > 100 µM (inactive) | > 100 µM (inactive) | > 100 µM (inactive) | > 100 µM (inactive) | > 100 µM (inactive) |  | > 100 µM (inactive) |  | > 100 µM (inactive) | > 100 µM (inactive) | > 100 µM (inactive) | > 100 µM (inactive) | > 100 µM (inactive) |  | > 100 µM (inactive) | > 100 µM (inactive) | > 100 µM (inactive) | > 100 µM (inactive) | > 100 µM (inactive) |  |
